Reference: ChEMBL document CHEMBL1201862, “PubChem BioAssay data set” (2004)
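In this assay, cells in 96-well plates receive the compound at five concentrations for 48 hours. Endpoints are linearly interpolated between the surrounding concentrations. GI50: concentration for 50% inhibition of growth.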 The source made the active and inactive calls. Rule as the data show it: active = GI50 up to about 1.1 µM and inactive = higher.

What was measured:
Assay in all cases: NCI anticancer screen, dose series, 48 h
786-0 = system: 786-0
RXF 393 = system: RXF 393
SK-OV-3 = system: SK-OV-3
SK-MEL-5 = system: SK-MEL-5
SF-268 = system: SF-268
SF-295 = system: SF-295
OVCAR-5 = system: OVCAR-5
TK-10 = system: TK-10
CCRF-CEM = system: CCRF-CEM
HT-29 = system: HT-29
SK-MEL-2 = system: SK-MEL-2
NCI-H23 = system: NCI-H23
SR = system: SR
K562 = system: K562
UO-31 = system: UO-31
SF-539 = system: SF-539
COLO 205 = system: COLO 205
SNB-19 = system: SNB-19

SMILES: NNc1cnn(-c2ccccc2)c(=O)c1Cl
- GI50 (786-0): > 100 µM (inactive)
- GI50 (RXF 393): > 100 µM (inactive)
- GI50 (SK-OV-3): > 100 µM (inactive)
- GI50 (SK-MEL-5): > 100 µM (inactive)
- GI50 (SF-268): > 100 µM (inactive)
- GI50 (SF-295): > 100 µM (inactive)
- GI50 (OVCAR-5): > 100 µM (inactive)
- GI50 (TK-10): > 100 µM (inactive)
- GI50 (CCRF-CEM): > 100 µM (inactive)
- GI50 (HT-29): > 100 µM (inactive)
- GI50 (SK-MEL-2): > 100 µM (inactive)
- GI50 (NCI-H23): > 100 µM (inactive)
- GI50 (SR): > 100 µM (inactive)
- GI50 (K562): > 100 µM (inactive)
- GI50 (UO-31): > 100 µM (inactive)
- GI50 (SF-539): > 100 µM (inactive)
- GI50 (COLO 205): > 100 µM (inactive)

SMILES: Cc1nn(C(=O)CC(=O)Nc2ccccc2Cl)c(C)c1/N=N/c1ccccc1Cl
- GI50 (786-0): > 100 µM (inactive)
- GI50 (RXF 393): > 100 µM (inactive)
- GI50 (SK-OV-3): > 100 µM (inactive)
- GI50 (SK-MEL-5): > 100 µM (inactive)
- GI50 (SF-268): 85.7 µM (inactive)
- GI50 (SF-295): > 100 µM (inactive)
- GI50 (OVCAR-5): > 100 µM (inactive)
- GI50 (TK-10): > 100 µM (inactive)
- GI50 (SNB-19): > 100 µM (inactive)
- GI50 (CCRF-CEM): > 100 µM (inactive)
- GI50 (HT-29): > 100 µM (inactive)
- GI50 (SK-MEL-2): > 100 µM (inactive)
- GI50 (NCI-H23): > 100 µM (inactive)
- GI50 (SR): > 100 µM (inactive)
- GI50 (K562): > 100 µM (inactive)
- GI50 (UO-31): > 100 µM (inactive)
- GI50 (SF-539): 80.9 µM (inactive)
- GI50 (COLO 205): > 100 µM (inactive)

SMILES: c1ccc2c(c1)oc1ccc3nsnc3c12
- GI50 (786-0): > 100 µM (inactive)
- GI50 (RXF 393): 71 µM (inactive)
- GI50 (SK-OV-3): > 100 µM (inactive)
- GI50 (SK-MEL-5): > 100 µM (inactive)
- GI50 (SF-268): > 100 µM (inactive)
- GI50 (SF-295): > 100 µM (inactive)
- GI50 (OVCAR-5): > 100 µM (inactive)
- GI50 (TK-10): > 10 µM (inactive)
- GI50 (SNB-19): > 100 µM (inactive)
- GI50 (CCRF-CEM): > 100 µM (inactive)
- GI50 (HT-29): > 100 µM (inactive)
- GI50 (SK-MEL-2): > 100 µM (inactive)
- GI50 (NCI-H23): > 100 µM (inactive)
- GI50 (SR): > 100 µM (inactive)
- GI50 (K562): > 100 µM (inactive)
- GI50 (UO-31): > 100 µM (inactive)
- GI50 (SF-539): > 100 µM (inactive)
- GI50 (COLO 205): > 100 µM (inactive)

SMILES: O=C(O)C(Cc1ccccc1)N1C(=O)N/C(=C\c2ccc(F)cc2)C1=O (stereo not given)
- GI50 (786-0): > 100 µM (inactive)
- GI50 (RXF 393): > 100 µM (inactive)
- GI50 (SK-OV-3): > 100 µM (inactive)
- GI50 (SK-MEL-5): > 100 µM (inactive)
- GI50 (SF-295): > 100 µM (inactive)
- GI50 (OVCAR-5): > 100 µM (inactive)
- GI50 (TK-10): > 100 µM (inactive)
- GI50 (CCRF-CEM): > 100 µM (inactive)
- GI50 (HT-29): > 100 µM (inactive)
- GI50 (SK-MEL-2): > 100 µM (inactive)
- GI50 (NCI-H23): > 100 µM (inactive)
- GI50 (SR): > 100 µM (inactive)
- GI50 (K562): > 100 µM (inactive)
- GI50 (UO-31): > 100 µM (inactive)
- GI50 (SF-539): > 100 µM (inactive)
- GI50 (COLO 205): > 100 µM (inactive)

SMILES: COC(=O)C1=CC(O)CCC1c1ccc(OC)cc1 (stereo not given)
- GI50 (786-0): > 100 µM (inactive)
- GI50 (RXF 393): > 100 µM (inactive)
- GI50 (SK-OV-3): > 100 µM (inactive)
- GI50 (SK-MEL-5): > 100 µM (inactive)
- GI50 (SF-268): > 100 µM (inactive)
- GI50 (SF-295): > 100 µM (inactive)
- GI50 (OVCAR-5): > 100 µM (inactive)
- GI50 (TK-10): > 100 µM (inactive)
- GI50 (SNB-19): > 100 µM (inactive)
- GI50 (CCRF-CEM): > 100 µM (inactive)
- GI50 (HT-29): > 100 µM (inactive)
- GI50 (SK-MEL-2): > 100 µM (inactive)
- GI50 (NCI-H23): > 100 µM (inactive)
- GI50 (SR): > 100 µM (inactive)
- GI50 (K562): > 100 µM (inactive)
- GI50 (UO-31): > 100 µM (inactive)
- GI50 (SF-539): > 100 µM (inactive)
- GI50 (COLO 205): > 100 µM (inactive)

SMILES: O=[N+]([O-])c1nccn1CC(O)CN1CC1 (stereo not given)
- GI50 (786-0): 65.6 µM (inactive)
- GI50 (RXF 393): 25.5 µM (inactive)
- GI50 (SK-OV-3): 35.1 µM (inactive)
- GI50 (SK-MEL-5): 71.8 µM (inactive)
- GI50 (SF-268): 91.6 µM (inactive)
- GI50 (SF-295): > 100 µM (inactive)
- GI50 (OVCAR-5): > 100 µM (inactive)
- GI50 (TK-10): > 100 µM (inactive)
- GI50 (SNB-19): > 100 µM (inactive)
- GI50 (CCRF-CEM): 24.7 µM (inactive)
- GI50 (HT-29): 56.6 µM (inactive)
- GI50 (SK-MEL-2): 41.6 µM (inactive)
- GI50 (NCI-H23): 36.4 µM (inactive)
- GI50 (SR): 27.2 µM (inactive)
- GI50 (K562): 46 µM (inactive)
- GI50 (UO-31): 37.8 µM (inactive)
- GI50 (SF-539): 55.6 µM (inactive)
- GI50 (COLO 205): 44.6 µM (inactive)

SMILES: N#CCCN(CCC#N)C(=O)c1cccc(C(=O)N(CCC#N)CCC#N)c1
- GI50 (786-0): > 100 µM (inactive)
- GI50 (RXF 393): 4.07 µM (inactive)
- GI50 (SK-OV-3): > 100 µM (inactive)
- GI50 (SK-MEL-5): > 56.5 µM (inactive)
- GI50 (SF-268): > 100 µM (inactive)
- GI50 (SF-295): > 77.8 µM (inactive)
- GI50 (OVCAR-5): > 100 µM (inactive)
- GI50 (SNB-19): > 61 µM (inactive)
- GI50 (CCRF-CEM): > 100 µM (inactive)
- GI50 (HT-29): 19.1 µM (inactive)
- GI50 (SK-MEL-2): > 100 µM (inactive)
- GI50 (NCI-H23): > 41.9 µM (inactive)
- GI50 (SR): > 44.2 µM (inactive)
- GI50 (K562): > 100 µM (inactive)
- GI50 (UO-31): > 100 µM (inactive)
- GI50 (SF-539): > 40.9 µM (inactive)
- GI50 (COLO 205): > 70.5 µM (inactive)

SMILES: CN(C)CC(C)(C)C(/C=C/c1ccccc1)=N\Nc1ccccc1
- GI50 (786-0): 0.457 µM (active)
- GI50 (RXF 393): 18 µM (inactive)
- GI50 (SK-OV-3): 5 µM (inactive)
- GI50 (SK-MEL-5): 6.64 µM (inactive)
- GI50 (SF-268): 0.172 µM (active)
- GI50 (SF-295): 0.131 µM (active)
- GI50 (OVCAR-5): 0.31 µM (active)
- GI50 (TK-10): 0.162 µM (active)
- GI50 (SNB-19): 3.23 µM (inactive)
- GI50 (CCRF-CEM): 0.367 µM (active)
- GI50 (HT-29): 11 µM (inactive)
- GI50 (SK-MEL-2): 3.6 µM (inactive)
- GI50 (NCI-H23): 10.6 µM (inactive)
- GI50 (SR): 0.798 µM (active)
- GI50 (K562): 0.238 µM (active)
- GI50 (UO-31): 0.0836 µM (active)
- GI50 (SF-539): 0.28 µM (active)
- GI50 (COLO 205): 3.19 µM (inactive)
